Experimental findings from patent US9650389B2, “8-oxoprotoberberine derivative or pharmaceutically acceptable salt thereof, preparation method therefor and pharmaceutical composition for preventing or treating diseases associated with activity of NFAT5, containing same as active ingredient” (Korea Research Institute of Chemical Technology, priority 2013, dated 2017) are described below.

One series has as its system iNOS. Put plainly: Inhibition of LPS-induced iNOS induction in Raw264.7 cells (Griess reagent). The series is classed as cell-based. The settings on record: Mus musculus, Raw264.7, LPS 100 ng/ml, 24 hours, read-out: Inhibition rate of iNOS induction (%). How it is done: To investigate whether or not the derivative of the present invention could inhibit iNOS inducement, Raw264.7 cells (mouse macrophages) were distributed in a 384-well plate at the density of 3×10^4 cells/well. The cells were treated with LPS at the concentration of 100 ng/ml, followed by culture at 37° C. for 24 hours. The concentration of […] increased in the medium was measured by using Griess reagent. The inhibition rate was calculated by mathematical formula based on the detected signals. The results are shown in Table 2. % inhibition=(mean value of sample−mean value of negative control)/(mean value of positive control −mean value of negative control)×100 [Mathematical Formula 1]
In general terms: Nitrite, measured by Griess reagent, commonly stands in for NO production.

The subject of the next series is NFATc. Briefly: NFAT (NFATc) transcriptional activity, THP1-XBlue-MD2-CD14 cells, SEAP. The series is classed as cell-based. To be noted: LPS 1 μg/ml, 24 hours, FIG. 2B. The procedure: To evaluate the transcriptional activity of NFAT, THP1-XBlue-MD2-CD14 cells were cultured in 10% FBS-RPMI (supplemented with 200 μg/ml of Zeocin and 250 μg/ml of G418). First, the cells were distributed in a 96-well plate at the density of 2×10^4 cells/well, followed by culture. 1 μg/ml of LPS and the compound of the invention were added thereto, followed by culture for 24 hours. 20 μl of the supernatant was added with 180 μl of secreted embryonic alkaline phosphatase (SEAP) detection medium, followed by culture for 2 hours. Then, OD655 was measured.

In series [1] the test system is NFAT5 transcript BGT1 and AR. Briefly: NaCl-mediated up-regulation of NFAT5 transcripts (hypertonic condition), RAW264.7 cells, real-time PCR. The series is classed as cell-based, mouse. To be noted: 1 μM pre-treatment 1 hour, NaCl 45 mM 3 hours. How it is done:
It was investigated whether or not the factors regulated by NFAT5 under the hypertonic condition could be affected by the compound of Example 1. Particularly, RAW264.7 cells were distributed in a 6-well plate at the density of 1.5×10^5 cells/well, followed by culture and stabilization in 10% FBS-RPMI 1640 medium. The cells were pre-treated with the compound of Example 1 (1 μM) for 1 hour, and then stimulated with NaCl (45 mM) for 3 hours. mRNA was extracted from the cells, from which cDNA was synthesized.
In general terms: Real-time PCR tracks product formation cycle by cycle.

The nature of series [2]: Cytotoxicity test (WST-8), VERO. The settings on record: African green monkey, VERO kidney cells. The series is classed as cell-based. How it is done:
(§1) To investigate the cytotoxicity of the derivative of the present invention, 5 kinds of cell lines (VERO: African green monkey kidney cell line, HFL-1: human embryonic lung cell line, L929: NCTC clone 929, mouse fibroblast cell line, NIH 3T3: mouse embryonic fibroblast cell line, and CHO-K1: Chinese hamster ovary cell line) were distributed in a 96-well plate at the density of 1×10^4 cells/well, which were treated with the compound of the present invention for 24 hours. The water-soluble tetrazolium salt WST-8 was added thereto. The orange colored formazan dye degraded by dehydrogenase in the live cells was read, followed by nonlinear regression to determine 50% growth inhibition concentration.
Background: Formazan colour is commonly taken as a measure of viable cells.

Series [3] is described as follows: Cytotoxicity test (WST-8), L929. The series is classed as cell-based. The settings on record: mouse, L929 fibroblast cells (NCTC clone 929); L929, 24 hours. How it is done:
as §1

Series [4] in a line: Cytotoxicity test (WST-8), HFL-1. The settings on record: human, HFL-1 embryonic lung cells; HFL-1, 24 hours. Type of series: cell-based. How it is done: as §1
Series [5] in a line: Cytotoxicity test (WST-8), NIH 3T3. The series is classed as cell-based. The settings on record: mouse, NIH 3T3 embryonic fibroblast cells; NIN3T3, 24 hours. How it is done: as §1
A short description of series [6]: Cytotoxicity test (WST-8), CHO-K1. Type of series: cell-based. To be noted: Chinese hamster, CHO-K1 ovary cells; CHO-K1, 24 hours. The procedure: as §1
Series [7] deals with inflammatory cytokines (TNF-α, IL-6). Briefly: Inflammatory cytokines in LPS-stimulated spleen cells of collagen-induced arthritis mice (ELISA). The settings on record: 15 and 60 mg/kg; arthritis mouse spleen cells, LPS 12 hours; FIG. 8. Type of series: in vivo. The procedure: Particularly, the mice having arthritis induced by collagen in Example 10 were used herein. Cells were extracted from the mouse spleen, which were cultured in a 12-well plate and stabilized. Cells were stimulated with LPS for 12 hours and the expressions of inflammatory cytokines (TNF-α, IL-6) were measured by ELISA.

A further series deals with NFAT5. Put plainly: NFAT5 protein in LPS-stimulated spleen cells of collagen-induced arthritis mice. Type of series: in vivo. The settings on record: CIA mouse spleen cells treated with LPS; FIG. 9. The source says: Particularly, the spleen cells of the mouse having arthritis induced by collagen by the same manner as described in Example 11 were stimulated with LPS. Protein was extracted from the cells, followed by quantification of NFAT5 protein.

Series [8] in a line: Metabolic stability in rat liver microsomes. Type of series: in vitro ADME. To be noted: rat liver microsome fractions, 30 minutes. How it is done:
(§2) Particularly, each compound was added to rat and human liver microsome fractions, followed by culture for 30 minutes. Each compound was administered via intravenous injection (iv) and oral-administration (po) to rat at the concentration of 5 mg/kg, followed by making pharmacokinetic profiles.

Series [9] is described as follows: Metabolic stability in human liver microsomes. The series is classed as in vitro ADME. To be noted: human liver microsome fractions, 30 minutes. How it is done:
as §2

`COc1ccc2c(Cc3ccccc3F)c3n(c(=O)c2c1OC)CCc1cc2c(cc1-3)OCO2` [Example 1, 13-(2-fluorobenzyl)-9,10-dimethoxy-5H-[1,3]dioxolo[4,5-g]isoquinolino[3,2-a]isoquinoline-8(6H)-one]: in the series on iNOS (1 μM), the inhibition – broadly, the drop in the measured response relative to a control, in per cent – at 1 µM was 91%. In the series with iNOS (10 μM), the inhibition at 10 µM is 134%. Also, in the series with NFATc, the “inhibition of NFAT promoter / transcriptional activity (in words)” value is reported as “slightly”. For the same compound, in [1] (FIG. 5A), the “NaCl-mediated up-regulation of BGT1 transcript” value is listed as “not changed”. The “NaCl-mediated up-regulation of AR transcript” value in series [1] (FIG. 5B) was “not changed”. Also, the 50% growth inhibitory concentration (GI50) (in general, the concentration that inhibits growth by half) at 24 h in series [2] came out at 84.2 µM; in [3] it was 40.3 µM; in [4], 26.1 µM; in series [5] it was 7.16 µM; in series [6], 12.1 µM. Besides, in [7], the “expression of IL-6” value is given as “reduced”. For the same compound, in series [7], the “expression of TNF-α” value is on record as “reduced”. For the same compound, in the series on NFAT5, the “expression of NFAT5” value is listed as “suppressed”. Besides, in series [8], the “remaining compound, Rat (%)” value came out at 35 ± 3%. The “remaining compound, Human (%)” value in series [9] turned out to be 68.2 ± 6.1%.
